Assays:
[1] = target: T1, D(2) dopamine receptor (Homo sapiens, UniProt P14416); experiment: Displacement of [3H]spiroperidol from human recombinant Dopamine D2 long receptor
[2] = target: 5-hydroxytryptamine receptor 7 (Rattus norvegicus, UniProt P32305); experiment: Displacement of [3H]LSD from rat recombinant 5HT7 receptor expressed in HEK293 cells; format: cell-based
[3] = target: T2, 5-hydroxytryptamine receptor 1A (Homo sapiens, UniProt P08908); experiment: Displacement of [3H]8-OH-DPAT from human recombinant 5HT1A receptor expressed in HEK293 cells; format: cell-based
T2 sequence (P08908 whole entry): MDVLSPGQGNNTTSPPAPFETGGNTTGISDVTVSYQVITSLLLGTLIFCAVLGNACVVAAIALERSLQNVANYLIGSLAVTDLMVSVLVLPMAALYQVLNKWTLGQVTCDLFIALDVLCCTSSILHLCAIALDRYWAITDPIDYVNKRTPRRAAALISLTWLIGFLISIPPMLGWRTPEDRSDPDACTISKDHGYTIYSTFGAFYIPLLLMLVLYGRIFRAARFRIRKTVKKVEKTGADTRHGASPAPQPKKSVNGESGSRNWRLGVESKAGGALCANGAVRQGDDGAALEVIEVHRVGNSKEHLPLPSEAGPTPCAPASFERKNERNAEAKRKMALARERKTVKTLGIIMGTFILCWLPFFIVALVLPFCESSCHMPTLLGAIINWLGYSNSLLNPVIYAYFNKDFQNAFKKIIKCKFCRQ

[4] = target: 5-hydroxytryptamine receptor 2A (Rattus norvegicus, UniProt P14842); experiment: Displacement of [3H]ketanserin from 5HT2A receptor in Sprague-Dawley cortex membrane; format: cell membranes
[5] = target: 5-hydroxytryptamine receptor 7 (Cavia porcellus) (UniProt P50407); experiment: (§1) Agonist activity at 5HT7 receptor in guinea pig ileum assessed as relaxation of substance P-induced contraction; format: functional, tissue-based
[6] = target: T3, 5-hydroxytryptamine receptor 7 (Cavia porcellus, UniProt P50407); experiment: as §1; format: functional, tissue-based
[7] = target: T1, D(2) dopamine receptor; experiment: Displacement of [3H]spiroperidol from human recombinant Dopamine D2 long receptor […]
[8] = target: 5-hydroxytryptamine receptor 2A (Rattus norvegicus) (UniProt P14842); experiment: Displacement of [3H]ketanserin from 5HT2A receptor in Sprague-Dawley cortex membrane at >4000 uM; format: cell membranes
[9] = target: T3, 5-hydroxytryptamine receptor 7; experiment: Antagonist activity at 5HT7 receptor in guinea pig ileum assessed as effect on substance P-induced contraction; format: functional, tissue-based; details: read-out: pA2 (converted)
[10] = Selectivity for rat 5HT7 over human 5HT1A
[11] = Ratio of Ki for human Dopamine D2L receptor to Ki for rat 5HT7 receptor
[12] = target: T3, 5-hydroxytryptamine receptor 7; experiment: Antagonist activity at 5HT7 receptor in guinea pig ileum assessed as effect on 3-(2-aminoethyl)-1H-indole-5-carboxamide mediated relaxation of substance P-induced contraction; format: functional, tissue-based; details: read-out: pA2 (converted)
[13] = target: T3, 5-hydroxytryptamine receptor 7; experiment: Antagonist activity at 5HT7 receptor in guinea pig ileum assessed as effect on 6-(4-phenylpiperazin-1-yl)-N-(1,2,3,4-tetrahydronaphthalen-1-yl)hexanamide mediated relaxation of substance P-induced contraction; format: functional, tissue-based; details: read-out: pA2 (converted)
[14] = target: T3, 5-hydroxytryptamine receptor 7; experiment: Antagonist activity at 5HT7 receptor in guinea pig ileum assessed as effect on 6-(4-(2-nitrophenyl)piperazin-1-yl)-N-(1,2,3,4-tetrahydronaphthalen-1-yl)hexanamide mediated relaxation of substance P-induced contraction; format: functional, tissue-based; details: read-out: pA2 (converted)
[15] = target: T3, 5-hydroxytryptamine receptor 7; experiment: Antagonist activity at 5HT7 receptor in guinea pig ileum assessed as effect on 6-(4-(2-chlorophenyl)piperazine-1-yl)-N-(1,2,3,4-tetrahydronaphthalen-1-yl)hexanamide mediated relaxation of substance P-induced contraction; format: functional, tissue-based; details: read-out: pA2 (converted)
[16] = target: T3, 5-hydroxytryptamine receptor 7; experiment: Antagonist activity at 5HT7 receptor in guinea pig ileum assessed as effect on 4-[2-(1-methylethyl)phenyl]-N-(1,2,3,4-tetrahydronaphthalen-1-yl)-1-piperazine hexanamide mediated relaxation of substance P-induced contraction; format: functional, tissue-based; details: read-out: pA2 (converted)
[17] = target: T3, 5-hydroxytryptamine receptor 7; experiment: Antagonist activity at 5HT7 receptor in guinea pig ileum assessed as effect on 4-(2-diphenyl)-N-(1,2,3,4-tetrahydronaphthalen-1-yl)-1-piperazine hexanamide mediated relaxation of substance P-induced contraction; format: functional, tissue-based; details: read-out: pA2 (converted)
[18] = target: T3, 5-hydroxytryptamine receptor 7; experiment: Antagonist activity at 5HT7 receptor in guinea pig ileum assessed as effect on 4-(2-dimethylaminophenyl)-N-(1,2,3,4-tetrahydronaphthalen-1-yl)-1-piperazine hexanamide mediated relaxation of substance P-induced contraction; format: functional, tissue-based; details: read-out: pA2 (converted)

Chain of 5-hydroxytryptamine receptor 7 (Rattus norvegicus, UniProt P32305) (P32305 whole entry): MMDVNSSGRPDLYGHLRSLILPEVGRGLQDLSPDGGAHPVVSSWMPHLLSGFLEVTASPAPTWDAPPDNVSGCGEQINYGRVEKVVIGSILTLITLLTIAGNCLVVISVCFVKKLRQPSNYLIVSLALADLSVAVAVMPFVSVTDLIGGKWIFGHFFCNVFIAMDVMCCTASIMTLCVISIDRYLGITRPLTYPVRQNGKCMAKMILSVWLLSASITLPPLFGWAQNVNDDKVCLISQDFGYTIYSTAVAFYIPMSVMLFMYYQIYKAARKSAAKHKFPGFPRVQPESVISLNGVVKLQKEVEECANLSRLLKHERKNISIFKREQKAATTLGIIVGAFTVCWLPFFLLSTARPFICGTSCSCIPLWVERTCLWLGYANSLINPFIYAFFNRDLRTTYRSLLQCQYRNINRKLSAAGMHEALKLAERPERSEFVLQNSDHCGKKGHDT
T1 sequence (P14416 whole entry): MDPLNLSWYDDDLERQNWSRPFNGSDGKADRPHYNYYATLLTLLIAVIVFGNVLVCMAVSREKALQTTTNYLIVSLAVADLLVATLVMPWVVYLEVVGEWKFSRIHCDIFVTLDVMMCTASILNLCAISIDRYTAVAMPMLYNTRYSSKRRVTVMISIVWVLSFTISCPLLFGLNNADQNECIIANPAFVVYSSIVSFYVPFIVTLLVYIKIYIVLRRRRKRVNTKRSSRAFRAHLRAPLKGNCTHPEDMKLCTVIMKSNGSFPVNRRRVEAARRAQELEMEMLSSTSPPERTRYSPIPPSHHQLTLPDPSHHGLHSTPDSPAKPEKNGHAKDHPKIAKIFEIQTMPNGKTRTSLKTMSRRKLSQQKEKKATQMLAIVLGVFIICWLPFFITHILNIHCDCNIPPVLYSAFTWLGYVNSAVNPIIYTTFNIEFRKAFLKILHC
Chain of 5-hydroxytryptamine receptor 2A (P14842 whole entry): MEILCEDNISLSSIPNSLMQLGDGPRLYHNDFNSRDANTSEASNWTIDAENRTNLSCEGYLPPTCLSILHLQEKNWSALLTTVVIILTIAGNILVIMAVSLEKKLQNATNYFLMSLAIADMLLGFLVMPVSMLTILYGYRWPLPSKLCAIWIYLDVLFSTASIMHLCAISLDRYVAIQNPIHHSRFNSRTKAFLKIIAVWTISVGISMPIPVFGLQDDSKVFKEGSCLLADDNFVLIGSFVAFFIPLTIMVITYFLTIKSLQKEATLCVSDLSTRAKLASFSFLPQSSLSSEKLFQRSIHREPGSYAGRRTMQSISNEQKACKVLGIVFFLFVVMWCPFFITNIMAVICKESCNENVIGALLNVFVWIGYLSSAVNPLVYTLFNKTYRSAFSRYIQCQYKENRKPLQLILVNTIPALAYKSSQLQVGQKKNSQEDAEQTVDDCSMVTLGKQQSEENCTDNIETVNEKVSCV
Chain of 5-hydroxytryptamine receptor 7 (Cavia porcellus) (P50407 whole entry): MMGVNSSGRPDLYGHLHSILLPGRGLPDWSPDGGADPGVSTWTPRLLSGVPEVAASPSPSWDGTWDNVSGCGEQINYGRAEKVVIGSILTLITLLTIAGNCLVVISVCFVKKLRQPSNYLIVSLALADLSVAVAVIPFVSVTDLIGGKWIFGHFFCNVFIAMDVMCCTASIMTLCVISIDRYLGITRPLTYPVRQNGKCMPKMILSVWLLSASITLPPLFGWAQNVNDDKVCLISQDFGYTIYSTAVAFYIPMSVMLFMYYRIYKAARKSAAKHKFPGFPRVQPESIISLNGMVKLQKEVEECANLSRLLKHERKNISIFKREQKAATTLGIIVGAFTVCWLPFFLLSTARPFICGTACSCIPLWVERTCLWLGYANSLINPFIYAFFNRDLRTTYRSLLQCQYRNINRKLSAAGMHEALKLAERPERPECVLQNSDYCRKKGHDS
T3 sequence (P50407 whole entry): as above
Chain of 5-hydroxytryptamine receptor 2A (Rattus norvegicus) (P14842 whole entry): as the sequence (P14842 whole entry) above

| SMILES | Ki [1] | Ki [2] | Ki [3] | Ki [4] | further results |
| --- | --- | --- | --- | --- | --- |
| O=C(CCCCCN1CCN(c2ccccc2O)CC1)NC1CCCc2ccccc21 (stereo not given) | 987 nM |  |  |  |  |
| CC(=O)c1ccccc1N1CCN(CCCCCC(=O)NC2CCCc3ccccc32)CC1 (stereo not given) | 68 nM |  |  |  |  |
| CCCc1ccccc1N1CCN(CCCCCC(=O)NC2CCCc3ccccc32)CC1 (stereo not given) | 123 nM | 49.6 nM | 168 nM | 3190 nM |  |
| O=C(CCCCCN1CCN(c2ccccc2[N+](=O)[O-])CC1)NC1CCCc2ccccc21 (stereo not given) | 681 nM |  |  |  | %max [5]: 24%; EC50 [6]: 10000 nM |
| O=C(CCCCCN1CCN(c2ccccc2Cl)CC1)NC1CCCc2ccccc21 (stereo not given) | 51 nM |  |  |  | %max [5]: 13%; EC50 [6]: 17000 nM |
| CS(=O)(=O)Nc1ccccc1N1CCN(CCCCCC(=O)NC2CCCc3ccccc32)CC1 (stereo not given) | > 1000 nM | 4250 nM |  |  | inhibition [7]: 28% |
| O=C(CCCCCN1CCN(c2cccc[n+]2[O-])CC1)NC1CCCc2ccccc21 (stereo not given) |  | 8030 nM | 194 nM |  |  |
| NC(=O)c1ccccc1N1CCN(CCCCCC(=O)NC2CCCc3ccccc32)CC1 (stereo not given) | > 1000 nM |  |  |  | inhibition [8]: 9%; inhibition [7]: 32% |
| O=C(CCCCCN1CCN(c2ccccc2F)CC1)NC1CCCc2ccccc21 (stereo not given) | 292 nM | 131 nM | 29.2 nM | 194 nM |  |
| NCCc1c[nH]c2ccc(C(N)=O)cc12 |  | 0.5 nM |  |  | %max [5]: 100%; EC50 [6]: 630 nM |
| CNc1ccccc1N1CCN(CCCCCC(=O)NC2CCCc3ccccc32)CC1 (stereo not given) | 107 nM | 25.4 nM | 133 nM | 1590 nM | %max [5]: 0%; Kb [9]: 20 nM |
| CCc1ccccc1N1CCN(CCCCCC(=O)NC2CCCc3ccccc32)CC1 (stereo not given) | 173 nM | 7.1 nM | 79.2 nM | 3370 nM |  |
| CC(=O)Nc1ccccc1N1CCN(CCCCCC(=O)NC2CCCc3ccccc32)CC1 (stereo not given) | > 1000 nM | 338 nM | 2500 nM | 3520 nM | inhibition [7]: 35% |
| COc1ccccc1N1CCN(CCCCCC(=O)NC2CCCc3ccccc32)CC1 (stereo not given) | 26.4 nM |  |  |  |  |
| O=C(CCCCCN1CCN(c2ccccn2)CC1)NC1CCCc2ccccc21 (stereo not given) | > 1000 nM | 278 nM | 36.4 nM | 535 nM | inhibition [7]: 15% |
| O=C(CCCCCN1CCN(c2ccccc2-c2ccccc2)CC1)NC1CCCc2ccccc21 (stereo not given) | 224 nM | 0.13 nM | 60.9 nM | 1460 nM | %max [5]: 74%; EC50 [6]: 1770 nM; Selectivity ratio [10]: > 100; Ratio Ki [11]: 1720 |
| CC(C)(C)c1ccccc1N1CCN(CCCCCC(=O)NC2CCCc3ccccc32)CC1 (stereo not given) | > 1000 nM | 538 nM | 1200 nM |  | inhibition [7]: 38% |
| CN(C)c1ccccc1N1CCN(CCCCCC(=O)NC2CCCc3ccccc32)CC1 (stereo not given) | 32 nM | 0.9 nM | 112 nM | 559 nM | %max [5]: 100%; EC50 [6]: 1170 nM; Selectivity ratio [10]: > 100 |
| CC(C)c1ccccc1N1CCN(CCCCCC(=O)NC2CCCc3ccccc32)CC1 (stereo not given) | 15 nM | 1.1 nM | 167 nM | 4820 nM | %max [5]: 83%; EC50 [6]: 900 nM; Selectivity ratio [10]: > 100 |
| Nc1ccccc1N1CCN(CCCCCC(=O)NC2CCCc3ccccc32)CC1 (stereo not given) |  | 8180 nM | 415 nM |  |  |
| CS(=O)(=O)c1ccccc1N1CCN(CCCCCC(=O)NC2CCCc3ccccc32)CC1 (stereo not given) | > 1000 nM |  |  |  | inhibition [8]: 38%; inhibition [7]: 32% |
| CC1CCN(CC[C@H]2CCCN2S(=O)(=O)c2cccc(O)c2)CC1 |  |  |  |  | Kb [12]: 33.1 nM; Kb [13]: 7.94 nM; Kb [14]: 6.31 nM; Kb [15]: 3.98 nM; Kb [16]: 8.91 nM; Kb [17]: 14.5 nM; Kb [18]: 12.6 nM |
| N#Cc1ccccc1N1CCN(CCCCCC(=O)NC2CCCc3ccccc32)CC1 (stereo not given) | 265 nM |  |  |  |  |
| Cc1ccccc1N1CCN(CCCCCC(=O)NC2CCCc3ccccc32)CC1 (stereo not given) | 143 nM |  |  |  |  |
| CSc1ccccc1N1CCN(CCCCCC(=O)NC2CCCc3ccccc32)CC1 (stereo not given) | 7.3 nM |  |  |  |  |
| O=C(CCCCCN1CCN(c2ccccc2)CC1)NC1CCCc2ccccc21 (stereo not given) | 1000 nM |  |  |  | %max [5]: 40%; EC50 [6]: 8000 nM |
| CCCCc1ccccc1N1CCN(CCCCCC(=O)NC2CCCc3ccccc32)CC1 (stereo not given) | 60 nM | 2810 nM | 60 nM |  |  |

Reference: ChEMBL document CHEMBL1148718, “Structure-activity relationship study on N-(1,2,3,4-tetrahydronaphthalen-1-yl)-4-aryl-1-piperazinehexanamides, a class of 5-HT7 receptor agents. 2” (J Med Chem, 2007)
